Laboratory results reported in patent US8633251B2, “Derivatives of aminoalkanols, method of obtaining of aminoalkanols and their use” (Uniwersytet Jagiellonski, priority 2008, dated 2014).

Legend:
Type in all cases: in vivo
[1] = tested on: neurotoxicity (rotarod); assay: Neurotoxicity test (TOX), rotarod, mice
Method: (§1) In order to define anticonvulsant activity, screening tests were performed, using animal models of seizures. […] Each substance (after dissolving in methylcellulose) was normally tested in doses 30, 100, and 300 mg/kg body weight (b.w.) (mice) or in 30 and 50 mg/kg b.w. (rats) in two possible routes of administration: intraperitoneal (i.p.) or oral (p.o.). Appropriate tests were performed 0.5 and 4 h after administration of the compound. […] (mice) the tests were also performed in doses 10 and 3 mg/kg b.w.
It is performed with use of rotarod test. The animal is placed on a plastic rod (1 inch in diameter), rotating 6 rpm. The rod is placed on a level discouraging the animal to jump off. […] Neurotoxicity is stated if the animal cannot stay on the rod for 1 min. in any of 3 trials. Normally the test is performed in dose 30 mg/kg b.w. in 4 mice (0.5 h) and in 2 mice (4 h), in the dose 100 mg/kg b.w. in 8 mice (0.5 h) and in 4 mice (4 h) and in the dose 300 mg/kg b.w. in 4 mice (0.5 h) and 2 mice (4 h).

[2] = tested on: maximal electroshock seizures; assay: Maximum Electroshock Seizure (MES) test, mice; settings: mice
Method: as §1
Maximum Electroshock Seizure (MES) test is an electric test, verifying activity towards generalized tonic-clonic seizures (grand mal epilepsy). […] Its procedure consists in administration to an animal a mentioned dose, and after 0.5 or 4 h attaching corneal electrodes (after anesthetic eye-drops: 0.5% tetracaine hydrochloride in 0.9% NaCl) and turning on electric current (60 Hz, 0.2 s, 50 mA (mice) or 150 mA (rats)). […] Normally, in the dose 30 mg/kg b.w. the test is done in 1 mouse after 0.5 or 4 h, in the dose 100 mg/kg b.w.—in 3 mice, and in the dose 300 mg/kg b.w.—in 1 mouse.

[3] = tested on: pentylenetetrazol-induced seizures; assay: Subcutaneous Metrazol Test (ScMet), mice; settings: dose 300 mg/kg b.w., 0.5 h
Method: In order to define anticonvulsant activity, screening tests were performed, using animal models of seizures. […] The tests were based on administration of a compound to an animal and after certain time inducing state similar to epilepsy attack in human. Each substance (after dissolving in methylcellulose) was normally tested in doses 30, 100, and 300 mg/kg body weight (b.w.) (mice) or in 30 and 50 mg/kg b.w. (rats) in two possible routes of administration: intraperitoneal (i.p.) or oral (p.o.). Appropriate tests were performed 0.5 and 4 h after administration of the compound. […] (mice) the tests were also performed in doses 10 and 3 mg/kg b.w.
Subcutaneous Metrazol Test (ScMet) is a chemical test, where compounds are tested for activity in absence seizures (petit mal epilepsy). Pentetrazol (metrazol) is considered to block chloride channel in the GABAA receptor complex, therefore at a certain dose in animals it causes myoclonic jerks, next—clonic seizures, and then tonic seizures. The procedure consists in administration of a tested compound and after 0.5 or 4 h subcutaneous administration of pentylenetetrazol in the dose of 85 mg/kg b.w. (mice) or 70 mg/kg b.w. (rats) in a 0.85% solution in 0.9% NaCl. […] Normally the test is performed in single animals.

[4] = mice, dose 300 mg/kg b.w., 0.5 h
[5] = mice, dose 100 mg/kg b.w., time 0.5 h
[6] = mice, dose 300 mg/kg b.w., time 0.5 h
[7] = dose 100 mg/kg b.w., time 0.5 h

Row | Compound | TOX, No. of animals exhibiting motor impairment/no. of used animals [1, 4] | MES, No. of protected animals/No. of used animals ([2]; dose 300 mg/kg b.w., 0.5 h) | MES, No. of protected animals/No. of used animals [2, 7] | also measured
1 | CCC(O)CNC(=O)COc1c(C)cccc1C (centres unmarked) [Compound 63, R,S-1N-[(2,6-dimethylphenoxy)acetyl]amino-2-butanol] | 4/4 | 1/1 | – | –
2 | Cc1cccc(Cl)c1OCC(=O)NCC(C)O (centres unmarked) [Compound 68, R,S-1N-[(2-chlor-6-methylphenoxy)acetyl]amino-2-propanol] | 4/4 | 1/1 | – | ScMet, No. of protected animals/No. of used animals [3]: 1/1; ED50 (MES, mice, i.p.) ([2]; i.p., time not given): 97.93 mg/kg b.w.
3 | Cc1cccc(Cl)c1OCC(=O)NC(C)CO (centres unmarked) [Compound 69, R,S-2N-[(2-chlor-6-methylphenoxy)acetyl]amino-1-propanol] | 1/4 | 1/1 | – | TOX, No. of animals exhibiting motor impairment/no. of used animals ([1]; mice, dose 100 mg/kg b.w., 0.5 h): 1/8
4 | Cc1cccc(Cl)c1OCC(=O)N[C@H](C)CO [Compound 70, R-(−)-2N-[(2-chlor-6-methylphenoxy)acetyl]amino-1-propanol] | 3/4 | 1/1 | – | –
5 | Cc1cccc(Cl)c1OCC(=O)N[C@@H](C)CO [Compound 71, S-(+)-2N-[(2-chlor-6-methylphenoxy)acetyl]amino-1-propanol] | 4/4 | 1/1 | – | –
6 | CCC(O)CNC(=O)COc1c(C)cccc1Cl (centres unmarked) [Compound 72, R,S-1N-[(2-chlor-6-methylphenoxy)acetyl]amino-2-butanol] | 4/4 | 1/1 | – | ScMet, No. of protected animals/No. of used animals [3]: 1/1
7 | R,S-1N-[(2-chlor-6-methylphenoxy)ethyl]amino-2-propanol [Compound 23] | – | – | 1/1 | TOX, No. of animals exhibiting motor impairment/no. of used animals [1, 5]: 7/8; TOX, No. of animals exhibiting motor impairment/no. of used animals [1, 6]: 4/4; MES, No. of protected animals/No. of used animals ([2]; dose 30 mg/kg b.w., time 0.5 h): 1/1
8 | R,S-1N-[(4-chlor-2-methylphenoxy)ethyl]amino-2-propanol [Compound 32] | – | – | 3/3 | TOX, No. of animals exhibiting motor impairment/no. of used animals [1, 5]: 7/8; TOX, No. of animals exhibiting motor impairment/no. of used animals [1, 6]: 4/4; TOX, No. of animals exhibiting motor impairment/no. of used animals ([1]; mice, dose 300 mg/kg b.w., time 4 h): 1/1; MES, No. of protected animals/No. of used animals ([2]; dose 30 mg/kg b.w., time 0.5 h): 1/1; MES, No. of protected animals/No. of used animals ([2]; dose 100 mg/kg b.w., time 4 h): 1/3; MES, No. of protected animals/No. of used animals ([2]; dose 300 mg/kg b.w., time 0.5 h): 1/1
9 | R,S-2N-[(2,3-dimethylphenoxy)ethyl]amino-1-propanol [Compound 1] | – | – | 3/3 | TOX, No. of animals exhibiting motor impairment/no. of used animals ([1]; mouse, in vivo, 100 mg/kg): 7/8; TOX, No. of animals exhibiting motor impairment/no. of used animals ([1]; mouse, in vivo, 300 mg/kg): 4/4
10 | R,S-2N-[(4-chlor-2-methylphenoxy)ethyl]amino-1-propanol [Compound 33] | – | – | 3/3 | TOX, No. of animals exhibiting motor impairment/no. of used animals [1, 5]: 4/8; TOX, No. of animals exhibiting motor impairment/no. of used animals [1, 6]: 4/4
11 | R-(+)-2N-[(2,6-dimethylphenoxy)acetyl]amino-1-propanol [Compound 61] | 2/4 | 1/1 | – | –
